ChEMBL document CHEMBL1949605, “Discovery of aminoheterocycles as potent and brain penetrant prolylcarboxypeptidase inhibitors” (Bioorg Med Chem Lett, 2012)

How the values were obtained:
[1] = Plasma concentration in CF-1 mouse at 1 mg/kg, iv measured after 4 hrs post dosing; format: ADME, organism-based; set-up: dose 1 mg/kg, route intravenous
[2] = target: T1, Lysosomal Pro-X carboxypeptidase (Mus musculus, UniProt Q7TMR0); experiment: Inhibition of mouse recombinant PrCP assessed as angiotensin 3 cleavage after 8 mins by LC/MS analysis
T1 sequence (Q7TMR0 whole entry): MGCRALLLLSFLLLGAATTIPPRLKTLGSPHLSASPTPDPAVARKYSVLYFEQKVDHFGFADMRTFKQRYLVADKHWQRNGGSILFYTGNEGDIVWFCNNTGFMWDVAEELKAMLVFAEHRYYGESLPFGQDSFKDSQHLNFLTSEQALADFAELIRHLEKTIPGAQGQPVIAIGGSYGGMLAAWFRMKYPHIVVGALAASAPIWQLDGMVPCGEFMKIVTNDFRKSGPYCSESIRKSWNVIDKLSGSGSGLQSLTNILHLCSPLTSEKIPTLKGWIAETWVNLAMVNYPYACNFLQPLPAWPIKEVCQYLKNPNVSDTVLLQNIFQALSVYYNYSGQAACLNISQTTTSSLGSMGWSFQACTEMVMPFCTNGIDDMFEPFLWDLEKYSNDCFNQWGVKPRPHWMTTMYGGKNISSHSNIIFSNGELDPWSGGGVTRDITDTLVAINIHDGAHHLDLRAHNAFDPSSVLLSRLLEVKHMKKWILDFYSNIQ

[3] = Ratio of drug uptake in brain to plasma of CF-1 mouse at 1 mg/kg, iv measured 4 hrs post-dosing; format: ADME, organism-based; set-up: dose 1 mg/kg, route intravenous; conditions: read-out: BPR
[4] = Drug uptake in CF-1 mouse brain at 1 mg/kg, iv measured after 4 hrs post dosing; format: ADME, organism-based; set-up: dose 1 mg/kg, route intravenous; conditions: read-out: Drug uptake
[5] = target: T1, Lysosomal Pro-X carboxypeptidase; experiment: Inhibition of mouse recombinant PrCP using Mca-Ala-Pro-Lys(Dnp)-OH as substrate after 30 mins by fluorescence analysis
[6] = target: T2, Lysosomal Pro-X carboxypeptidase (Homo sapiens, UniProt P42785); experiment: Inhibition of human recombinant PrCP using Mca-Ala-Pro-Lys(Dnp)-OH as substrate after 30 mins by fluorescence analysis
T2 sequence (P42785 whole entry): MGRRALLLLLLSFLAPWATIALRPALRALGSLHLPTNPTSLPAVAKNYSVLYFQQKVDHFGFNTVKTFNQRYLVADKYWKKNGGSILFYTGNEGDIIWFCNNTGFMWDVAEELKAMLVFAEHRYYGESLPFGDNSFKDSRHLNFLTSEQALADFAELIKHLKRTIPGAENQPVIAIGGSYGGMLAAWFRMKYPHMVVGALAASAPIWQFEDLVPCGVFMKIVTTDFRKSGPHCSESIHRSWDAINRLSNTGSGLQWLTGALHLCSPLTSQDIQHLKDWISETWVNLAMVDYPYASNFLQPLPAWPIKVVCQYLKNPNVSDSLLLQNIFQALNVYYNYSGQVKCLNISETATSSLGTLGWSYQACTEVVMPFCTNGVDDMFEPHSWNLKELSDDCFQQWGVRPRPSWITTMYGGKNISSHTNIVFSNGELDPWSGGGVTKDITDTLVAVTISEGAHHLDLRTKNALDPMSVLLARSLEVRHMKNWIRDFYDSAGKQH

[7] = target: T3, Lysosomal Pro-X carboxypeptidase (Homo sapiens) (UniProt P42785); experiment: Inhibition of human recombinant PrCP using Mca-Ala-Pro-Lys(Dnp)-OH as substrate at 5 uM after 30 mins by fluorescence analysis
T3 sequence (whole entry): T2 sequence (P42785 whole entry)

| IC50 [2] | IC50 [5] | SMILES | also measured |
| --- | --- | --- | --- |
| > 20000 nM |  | Clc1cc2nc([C@@H]3CCCN3c3cc(N4CCO[C@@H](c5ccccc5)C4)ncn3)[nH]c2cc1Cl | concentration at 4 h [1]: 304 nM; Kp at 4 h [3]: 0.79; concentration at 4 h [4]: 242 nM |
| 2210 nM | 146 nM | C[C@@H](c1ccc(Cl)cc1)N(C)c1cc(N2CCCC(C(C)(C)O)C2)ncn1 (stereo in doubt; 36a) |  |
| > 20000 nM | 413 nM | Clc1cc2nc([C@@H]3CCCN3c3cc(N4CCN(Cc5ccccc5)CC4)ncn3)[nH]c2cc1Cl |  |
|  |  | C[C@H](Nc1cc(N2CCCC(C(C)(C)O)C2)ncn1)c1ccc(Cl)cc1 (stereo not given in full) | concentration at 4 h [1]: 291 nM; Kp at 4 h [3]: 1.4; concentration at 4 h [4]: 400 nM |
| 25 nM |  | C[C@@H](c1ccc(-c2ccccc2)cc1)[C@H](NC(=O)C(C)(C)N)C(=O)N1CCC[C@H]1c1nc2cc(Cl)c(Cl)cc2[nH]1 |  |
| 9000 nM | 46 nM | COc1ccc(C2CN(c3cc(N4CCC[C@H]4c4nc5cc(Cl)c(Cl)cc5[nH]4)ncn3)CCO2)cc1 (stereo not given in full) |  |
| 355 nM | 18 nM | Clc1cc2nc([C@@H]3CCCN3c3cc(N4CCCC(N5CCc6c(cccc6-c6cccnc6)C5)C4)ncn3)[nH]c2cc1Cl (stereo in doubt; 28b) |  |
|  | 105 nM | C[C@H](Nc1cc(N[C@H]2CC[C@H](NS(C)(=O)=O)CC2)ncn1)c1ccc(Cl)cc1 |  |
| > 20000 nM |  | OC1(c2ccccc2)CCN(c2cc(N3CCC[C@H]3c3nc4cc(Cl)c(Cl)cc4[nH]3)ncn2)C1 (mixture of isomers) |  |
| 5000 nM | 797 nM | C[C@@H](c1ccc(Cl)cc1)N(C)c1cc(N2CCCC(C(C)(C)O)C2)ncn1 (mixture of isomers) |  |
|  |  | Clc1cc2nc([C@@H]3CCCN3c3cc(NCC4CCCCC4)ncn3)[nH]c2cc1Cl | IC50 [6]: > 10000 nM |
|  | 75 nM | C[C@H](Nc1cc(N[C@H]2CC[C@H](c3ccccc3)CC2)ncn1)c1ccc(Cl)cc1 |  |
| > 20000 nM |  | Clc1cc2nc([C@@H]3CCCN3c3cc(N4CCC(c5ccccn5)C4)ncn3)[nH]c2cc1Cl (mixture of isomers) |  |
| > 20000 nM |  | Clc1cc2nc([C@@H]3CCCN3c3cc(N4CCO[C@H](c5ccccc5)C4)ncn3)[nH]c2cc1Cl |  |
| 345 nM | 10 nM | Clc1cc2nc([C@@H]3CCCN3c3cc(N4CCCC(N5CCc6c(cccc6-c6cccnc6)C5)C4)ncn3)[nH]c2cc1Cl (stereo in doubt; 28a) | concentration at 4 h [1]: 367 nM; Kp at 4 h [3]: 0.29; concentration at 4 h [4]: 108 nM |
| > 20000 nM | 206 nM | Clc1cc2nc([C@@H]3CCCN3c3cc(N4CCC(Cn5cccn5)CC4)ncn3)[nH]c2cc1Cl |  |
|  |  | FC(F)(F)c1ccccc1-c1ccnc(N2CCC[C@H]2c2nc3cc(Cl)c(Cl)cc3[nH]2)c1 | inhibition [7]: 46% |
| 159 nM | 26 nM | COC(=O)N[C@H]1CC[C@H](Nc2cc(N[C@@H](C)c3ccc(Cl)cc3)ncn2)CC1 |  |
| > 20000 nM |  | CC(C)(O)C1CCCN(c2cc(N3CCC[C@H]3c3nc4cc(Cl)c(Cl)cc4[nH]3)ncn2)C1 (mixture of isomers) |  |
